Results as given in PMC11891828, “Olfactory Receptor Responses to Pure Odorants in Drosophila melanogaster” (The European Journal of Neuroscience, 2025).
Each block holds one molecule with its values, some of them ahead of it.

Assays:
Assay in all cases: in vivo GCaMP6m calcium imaging of antennal neurons, GC-purified odorant
Or10a = molecular target: T1, Or10a (Drosophila melanogaster, UniProt Q9VYZ1); conditions: activation; headspace of mineral-oil dilutions 10^-6, 10^-4, 10^-2
T1 construct: native receptor in situ in antennal olfactory sensory neurons of living flies; Or10a-Gal4 drives UAS-GCaMP6m reporter; with Odorant receptor coreceptor
T1 sequence (Q9VYZ1 1-406): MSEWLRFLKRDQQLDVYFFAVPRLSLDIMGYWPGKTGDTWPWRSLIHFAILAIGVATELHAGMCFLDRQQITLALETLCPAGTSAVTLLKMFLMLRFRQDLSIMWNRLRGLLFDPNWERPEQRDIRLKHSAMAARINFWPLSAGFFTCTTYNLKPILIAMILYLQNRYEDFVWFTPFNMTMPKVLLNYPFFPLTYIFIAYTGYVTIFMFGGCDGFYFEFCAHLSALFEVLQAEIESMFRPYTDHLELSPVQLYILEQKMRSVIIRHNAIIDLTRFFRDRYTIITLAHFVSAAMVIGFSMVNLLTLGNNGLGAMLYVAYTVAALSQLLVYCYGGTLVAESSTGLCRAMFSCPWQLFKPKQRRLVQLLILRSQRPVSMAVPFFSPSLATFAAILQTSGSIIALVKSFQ
T1 sequence (Q9VNB5 1-486 partner): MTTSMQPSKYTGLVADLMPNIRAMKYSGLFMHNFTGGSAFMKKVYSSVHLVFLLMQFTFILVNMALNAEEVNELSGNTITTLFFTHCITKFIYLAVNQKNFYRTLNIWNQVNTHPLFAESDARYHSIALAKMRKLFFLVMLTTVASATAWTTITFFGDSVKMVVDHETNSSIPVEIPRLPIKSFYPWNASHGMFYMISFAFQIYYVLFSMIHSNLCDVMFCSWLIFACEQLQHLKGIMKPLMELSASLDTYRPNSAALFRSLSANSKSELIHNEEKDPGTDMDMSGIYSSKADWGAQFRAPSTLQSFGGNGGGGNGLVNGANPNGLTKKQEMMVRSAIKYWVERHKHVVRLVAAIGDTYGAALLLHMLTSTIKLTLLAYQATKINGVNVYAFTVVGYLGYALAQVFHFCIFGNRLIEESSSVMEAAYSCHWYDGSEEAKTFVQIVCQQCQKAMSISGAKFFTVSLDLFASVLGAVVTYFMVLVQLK

Or92a [1] = molecular target: T2, Or92a (Drosophila melanogaster, UniProt Q9VDM1); conditions: activation, biphasic; polar GC column; n = 4
T2 construct: native receptor in situ in antennal olfactory sensory neurons of living flies; Or92a-Gal4 drives UAS-GCaMP6m reporter; with Odorant receptor coreceptor
T2 sequence (Q9VDM1 1-408): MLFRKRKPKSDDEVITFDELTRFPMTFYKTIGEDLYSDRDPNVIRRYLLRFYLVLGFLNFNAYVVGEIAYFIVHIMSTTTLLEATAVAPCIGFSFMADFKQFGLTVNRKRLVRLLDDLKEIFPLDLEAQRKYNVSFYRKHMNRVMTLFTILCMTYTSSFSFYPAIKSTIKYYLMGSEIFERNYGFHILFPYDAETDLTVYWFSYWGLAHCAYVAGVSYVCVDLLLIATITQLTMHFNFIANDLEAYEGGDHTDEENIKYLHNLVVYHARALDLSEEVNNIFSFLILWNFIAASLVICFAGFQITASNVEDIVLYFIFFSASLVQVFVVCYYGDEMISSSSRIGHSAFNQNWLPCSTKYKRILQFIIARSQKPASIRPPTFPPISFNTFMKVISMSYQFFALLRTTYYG
T2 sequence (Q9VNB5 1-486 partner): T1 sequence (Q9VNB5 1-486 partner)

Or92a [2] = molecular target: T2, Or92a; conditions: activation, biphasic; polar GC column; n = 4; remark: listed apart in the source
Or56a = molecular target: T3, Or56a (Drosophila melanogaster, UniProt Q9V8Y7); conditions: activation; dose series extended to 10^-12 dilution
T3 construct: native receptor in situ in antennal olfactory sensory neurons of living flies; Or56a-Gal4 drives UAS-GCaMP6m reporter; with Odorant receptor coreceptor
T3 sequence (Q9V8Y7 1-419): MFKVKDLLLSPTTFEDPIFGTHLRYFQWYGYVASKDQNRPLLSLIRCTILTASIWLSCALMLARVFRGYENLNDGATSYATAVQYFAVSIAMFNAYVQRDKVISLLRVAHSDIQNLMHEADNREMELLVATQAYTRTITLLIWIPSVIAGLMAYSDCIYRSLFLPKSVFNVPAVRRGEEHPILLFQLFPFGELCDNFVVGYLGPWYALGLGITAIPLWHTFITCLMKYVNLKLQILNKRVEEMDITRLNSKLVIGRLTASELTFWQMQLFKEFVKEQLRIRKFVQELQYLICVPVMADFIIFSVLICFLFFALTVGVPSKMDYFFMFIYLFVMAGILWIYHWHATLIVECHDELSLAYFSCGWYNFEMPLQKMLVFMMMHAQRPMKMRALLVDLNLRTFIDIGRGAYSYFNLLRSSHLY
T3 sequence (Q9VNB5 1-486 partner): T1 sequence (Q9VNB5 1-486 partner)

Or47a = molecular target: T4, Or47a (Drosophila melanogaster, UniProt P81921); conditions: activation; headspace of mineral-oil dilutions
T4 construct: native receptor in situ in antennal olfactory sensory neurons of living flies; Or47a-Gal4 drives UAS-GCaMP6m reporter; with Odorant receptor coreceptor
T4 sequence (P81921 1-385): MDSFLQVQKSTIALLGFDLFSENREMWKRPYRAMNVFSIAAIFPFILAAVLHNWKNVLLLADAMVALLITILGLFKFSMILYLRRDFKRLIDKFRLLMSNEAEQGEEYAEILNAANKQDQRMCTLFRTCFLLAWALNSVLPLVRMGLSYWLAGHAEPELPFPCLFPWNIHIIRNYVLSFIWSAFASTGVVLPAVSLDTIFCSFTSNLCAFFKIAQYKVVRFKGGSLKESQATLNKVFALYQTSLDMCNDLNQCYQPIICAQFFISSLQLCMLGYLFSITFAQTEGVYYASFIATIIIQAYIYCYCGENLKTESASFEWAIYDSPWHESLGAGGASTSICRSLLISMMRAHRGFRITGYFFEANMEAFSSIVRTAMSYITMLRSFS
T4 sequence (Q9VNB5 1-486 partner): T1 sequence (Q9VNB5 1-486 partner)

SMILES: CCOC(=O)c1ccccc1 [2EBM, ethyl benzoate]
in vivo GCaMP6m calcium imaging of antennal neurons, GC-purified odorant (Or10a): good ligands were methyl benzoate and ethyl benzoate

SMILES: COC(=O)c1ccccc1O [MSAM, methyl salicylate]
in vivo GCaMP6m calcium imaging of antennal neurons, GC-purified odorant (Or10a): The best ligand was methyl salicylate

SMILES: COC(=O)c1ccccc1 [MBZM, methyl benzoate]
in vivo GCaMP6m calcium imaging of antennal neurons, GC-purified odorant (Or10a): good ligands were methyl benzoate and ethyl benzoate

calcium response (Or92a [1]): > 40%
SMILES: C[C@H](O)[C@H](C)O [SBDL, (2S,3S)-(+)-2,3-Butanediol]

SMILES: C[C@H](O)[C@@H](C)O [MBDL, meso-2,3-Butanediol]
in vivo GCaMP6m calcium imaging of antennal neurons, GC-purified odorant (Or92a [2]): the meso isomer, identical to 2R,3S) gave a weak response only

SMILES: CC1CCCC2(C)CCCCC12O (racemic) [2MNL, (±)-geosmin]
in vivo GCaMP6m calcium imaging of antennal neurons, GC-purified odorant (Or56a): We found strong responses to geosmin and none to any of the other substances

calcium response (Or92a [1]): ~ 15%
SMILES: C[C@@H](O)[C@@H](C)O [RBDL, (2R,3R)-(−)-2,3-Butanediol]

SMILES: CCCCCOC(C)=O [PACE, pentyl acetate]
in vivo GCaMP6m calcium imaging of antennal neurons, GC-purified odorant (Or47a): We found strong responses to pentyl acetate (significant to very low concentrations
